According to US4299839A, “Novel pesticides and pesticidal compositions cyclopropanecarboxylates and pesticidal method” (priority 1979, dated 1981):

Legend:
[1] = system: green rice leafhoppers; assay: Utility Example 1: emulsifiable concentrate sprayed over rice seedlings, green rice leafhopper mortality; type: in vivo; conditions: 30% emulsifiable concentrate diluted 300-fold, 100 ml/pot, 24 hours; cis/trans 50/50
Protocol: To 30 parts of each of Compounds (1) to (38) were added 50 parts of xylene and 20 parts of Sorpol SM-200 (a surfactant, trademark of Toho Chemical Co., Ltd.). The mixture was stirred well and dissolved to obtain a 30% emulsifiable concentrate.
The emulsifiable concentrate prepared from Compounds (7), (11), (12), (15), (17), (21) and (22) [Each compound is a mixture of cis- and trans-isomer in a ratio 50/50] in Formulation Example 5 were each diluted 300-fold with water. Then, each of the dilutions was sprayed over rice seedlings 25 days after sowing at the rate of 100 ml/pot. The pot was covered with a wire net and 15 green rice leafhoppers were released under the net. After 24 hours, the leafhoppers were examined for deaths. The mortality (%) was not less than 90% for each of Compounds (7), (11), (12), (15), (17), (21) and (22).

[2] = system: houseflies; assay: Utility Example 3: settling mist method, mortality test against houseflies, oil preparations of Formulation Example 3; type: in vivo; conditions: oil preparation of Formulation Example 3 (0.1 part compound + 0.08 part permethrin per 100 parts), 24 hours; cis/trans 50/50
Protocol: To 0.1 part of each of Compounds (1) to (38) was added 0.08 part of permethrin, followed by the addition of a sufficient amount of kerosene to make 100 parts. The mixture was stirred to obtain an oil preparation of each compound.
By the settling mist method, a mortality test against houseflies was carried out using the oil preparations obtained in Formulation Example 3 from Compounds (1), (5), (7), (9), (11), (12), (15), (17) and (28) [Each compound is a mixture of cis- and trans-isomer in a ratio 50/50]. After 24 hours, the flies were examined for deaths. The mortality (%) was not less than 90% for each of Compounds (1), (5), (7), (9), (11), (12), (15), (17) and (28).

SMILES	Mortality (%) [1]	Mortality (%) [2]
CC1(C)C(CC(Cl)(Cl)Cl)C1C(=O)OC(C#N)c1cccc(Oc2ccc(Br)cc2)c1 (stereo not drawn) [(17), 3-(4-Bromophenoxy)-α-cyanobenzyl 2,2-dimethyl-3-(2,2,2-trichloroethyl)cyclopropanecarboxylate]	not less than 90%	
C#CC(OC(=O)C1C(CC(Cl)(Cl)Cl)C1(C)C)c1cccc(Oc2ccc(Br)cc2)c1 (stereo not drawn) [(22), 3-(4-Bromophenoxy)-α-ethynylbenzyl 2,2-dimethyl-3-(2,2,2-trichloroethyl)cyclopropanecarboxylate]	not less than 90%	
CC(Cl)(Cl)CC1C(C(=O)OC(C#N)c2cccc(Oc3ccccc3)c2)C1(C)C (stereo not drawn) [Compound (9), 3-Phenoxy-α-cyanobenzyl 2,2-dimethyl-3-(2,2-dichloropropyl)cyclopropanecarboxylate]		not less than 90%
